Test results published in US20110038920A1, “WOUND HEALING COMPOSITIONS AND TREATMENTS” (priority 2008, published 2011).
Counter-ions that a name gives are not always drawn.

What was measured:
[1] = tested on: OPN expression in Swiss 3T3 fibroblasts; test: Induction of OPN expression in fibroblasts by growth factors/cytokines (Western blot); format: cell-based; conditions: for ability to upregulate OPN expression in Swiss 3T3s: 8 h, PDGF-BB 20, EGF 100, TGFβ1 10, TGFβ3 10, IL-6 50, TNFα 10 ng/ml
Method: (§1) Protein samples (20 μg; collected in T-PER® Reagent; PIERCE Biotechnology) were separated on Tris-Glycine Gels (Invitrogen), transferred to PVDF, and blotted according to standard protocols (antibody details are provided above).
(§2) Swiss 3T3, J774.1 macrophages, and RBL mast cells were cultured in DMEM+10% fetal calf serum. Primary neutrophils were harvested by peritoneal lavage 4 h post-thioglycollate-induced peritonitis, and primary macrophages were derived from mouse bone marrow and activated with LPS (500 ng/ml).

[2] = tested on: pulmonary and dermal fibrosis; conditions: Distler et al. 2007; Aono et al. 2005; cited from earlier work
[3] = tested on: OPN expression in Swiss 3T3 fibroblasts exposed to macrophage CM; test: Macrophage-CM induction of OPN in fibroblasts with inhibitors (Western blot); format: cell-based; conditions: co-treatment; Gleevec 2-20 μM, PDGF-Rβ nAb 2 μg/ml, wortmannin 100 nM
Method: as §1, §2

chronic ulcers = conditions: cited from earlier work
Mouse OPN mRNA = test: AS ODN cleavage of OPN mRNA in vitro (RNase H); format: biochemical; conditions: ODN final concentration 2 μM, 20 min at 37° C., compared among the AS ODNs
Method: Dz cleavage of OPN mRNA in vitro: Mouse OPN mRNA was transcribed from the IMAGE clone (GenBank, BC057858; (Geneservice Ltd), and resulting RNA was purified with RNeasy MinElute Cleanup Kit (Qiagen). RNA (0.3 μg/5 μl) was incubated in the cleavage buffer (10 mM MgCl2, 5 mM Tris (pH 7.5), 150 mM NaCl) for 5 min at 37° C., as was 5 μl of Dzs (40 μM; MWG Biotech). These were then combined and incubated for 1 h. RNA products were separated on 2% formaldehyde-agarose gel and stained with SYBR Gold nucleic acid gel stain (Invitrogen) to determine cleaving efficiency (FIG. 6 A).
AS ODN cleavage in vitro: To evaluate the cleaving efficiency of the AS ODNs, transcribed RNA (0.3 μg) was incubated with control or OPN AS ODNs (final concentration of 2 μM; MWG Biotech), RNase H (Invitrogen. Corp.), and RNasin (to inhibit non-specific RNA degradation; Promega) in a final volume 10 μl of cleavage buffer, and incubated for 20 min at 37° C. RNA products were separated on 2% formaldehyde-agarose gel and stained with SYBR Gold nucleic acid gel stain (Invitrogen Corp.) to determine cleaving efficiency (FIG. 6 B).

Compound: TGFβ1: growth factor/cytokine, BioVision
- ability to upregulate OPN expression in Swiss 3T3s [1]: not

Compound: EGF: growth factor, R&D Systems (NSDSECPLSHDGYCLHDGVCMYIEALDKYACNCVVGYIGERCQYRDLKWWELR; Epidermal growth factor; UniProt P01133 971-1023, looked up)
- ability to upregulate OPN expression in Swiss 3T3s [1]: not

Compound: IL-6: cytokine, BioSource
- ability to upregulate OPN expression in Swiss 3T3s [1]: not

Compound: Cc1ccc(NC(=O)c2ccc(CN3CCN(C)CC3)cc2)cc1Nc1nccc(-c2cccnc2)n1 [Gleevec, imatinib mesylate]
- pulmonary and dermal fibrosis [2]: reduces pulmonary and dermal fibrosis
- OPN expression during fibroblast exposure to macrophage CM [3]: significantly reduced

Compound: PDGF-BB: growth factor, R&D Systems
- ability to upregulate OPN expression in Swiss 3T3s [1]: significantly upregulate
- time of peak OPN levels after initial exposure ([1]; Swiss 3T3 fibroblasts, 20 ng/ml PDGF-BB): about 8 h
- minimum window of exposure required for OPN expression ([1]; Swiss 3T3 fibroblasts, 20 ng/ml PDGF-BB, analysed at 8 h): ≥ 2 h
- granulation tissue and scarring (chronic ulcers; in vivo): increased granulation tissue and scarring
- healing of chronic ulcers (chronic ulcers; topical application to wounds (Chan et al. 2006)): accelerate the healing

Compound: OPN AS ODN (943): osteopontin antisense oligodeoxynucleotide actatcgatcacatccg (SEQ.ID.NO: 164) (antisense ACTATCGATCACATCCG; DNA, backbone not given here)
- effectiveness at cleaving OPN mRNA (Mouse OPN mRNA): most effective
